Source: PubChem BioAssay (NCI)
Values after ≈ are worked out from the molar mass of the structure shown.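 Five compound concentrations were applied to cells in 96-well plates for 48 hours; endpoints were derived by simple linear interpolation of the resulting dose-response curve. Here, GI50 denotes the concentration required for 50% inhibition of growth. TGI: concentration producing complete growth inhibition.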 Peptide text beside a SMILES is read from it.

Legend:
Assay in all cases: NCI anticancer screen, dose series, 48 h
ACHN renal = tested on: ACHN renal
NCI/ADR-RES ovarian = tested on: NCI/ADR-RES ovarian
RXF 393 renal = tested on: RXF 393 renal
SW-620 colon = tested on: SW-620 colon
NCI-H23 lung = tested on: NCI-H23 lung
TK-10 renal = tested on: TK-10 renal
HCC-2998 colon = tested on: HCC-2998 colon
SK-MEL-5 melanoma = tested on: SK-MEL-5 melanoma
EKVX NSCLC = tested on: EKVX NSCLC
T-47D breast = tested on: T-47D breast
UO-31 renal = tested on: UO-31 renal
IGROV1 ovarian = tested on: IGROV1 ovarian
U251 CNS = tested on: U251 CNS
K-562 leukemia = tested on: K-562 leukemia
CAKI-1 renal = tested on: CAKI-1 renal
MDA-MB-231 breast = tested on: MDA-MB-231 breast
KM12 colon = tested on: KM12 colon
PC-3 prostate = tested on: PC-3 prostate
SNB-19 CNS = tested on: SNB-19 CNS
OVCAR-5 ovarian = tested on: OVCAR-5 ovarian
UACC-257 melanoma = tested on: UACC-257 melanoma
SF-268 CNS = tested on: SF-268 CNS
SR leukemia = tested on: SR leukemia
HS 578T breast = tested on: HS 578T breast
OVCAR-3 ovarian = tested on: OVCAR-3 ovarian
NCI-H460 lung = tested on: NCI-H460 lung
SK-OV-3 ovarian = tested on: SK-OV-3 ovarian
HT29 colon = tested on: HT29 colon
HCT-15 colon = tested on: HCT-15 colon
NCI-H226 lung = tested on: NCI-H226 lung
SK-MEL-2 melanoma = tested on: SK-MEL-2 melanoma
NCI-H522 lung = tested on: NCI-H522 lung
UACC-62 melanoma = tested on: UACC-62 melanoma
LOX IMVI melanoma = tested on: LOX IMVI melanoma
COLO 205 colon = tested on: COLO 205 colon
M14 melanoma = tested on: M14 melanoma
BT-549 breast = tested on: BT-549 breast
HOP-92 NSCLC = tested on: HOP-92 NSCLC
SF-295 CNS = tested on: SF-295 CNS
MDA-MB-435 = tested on: MDA-MB-435
A549 NSCLC = tested on: A549 NSCLC
MCF7 breast = tested on: MCF7 breast
OVCAR-8 ovarian = tested on: OVCAR-8 ovarian
HCT-116 colon = tested on: HCT-116 colon
HOP-62 NSCLC = tested on: HOP-62 NSCLC
CCRF-CEM leukemia = tested on: CCRF-CEM leukemia
DU-145 prostate = tested on: DU-145 prostate
SN12C renal = tested on: SN12C renal
SK-MEL-28 melanoma = tested on: SK-MEL-28 melanoma
HL-60(TB) leukemia = tested on: HL-60(TB) leukemia
MOLT-4 leukemia = tested on: MOLT-4 leukemia
OVCAR-4 ovarian = tested on: OVCAR-4 ovarian
A498 renal = tested on: A498 renal
SF-539 CNS = tested on: SF-539 CNS
MALME-3M melanoma = tested on: MALME-3M melanoma
786-0 renal = tested on: 786-0 renal
SNB-75 CNS = tested on: SNB-75 CNS

## Oc1c(N2CCOCC2)cc(-c2cc(N3CCOCC3)c(O)c3ccccc23)c2ccccc12
ACHN renal
  TGI: 11 µM
NCI/ADR-RES ovarian
  TGI: 15.6 µM
RXF 393 renal
  TGI: 6.03 µM
SW-620 colon
  TGI: 6.34 µM
NCI-H23 lung
  TGI: 6.13 µM
TK-10 renal
  TGI: 28.9 µM
HCC-2998 colon
  TGI: 5.78 µM
SK-MEL-5 melanoma
  TGI: 3.35 µM
EKVX NSCLC
  TGI: 41.6 µM
T-47D breast
  TGI: 62.1 µM
UO-31 renal
  TGI: 4.66 µM
IGROV1 ovarian
  TGI: 7.16 µM
U251 CNS
  TGI: 3.34 µM
K-562 leukemia
  TGI: 6.64 µM
CAKI-1 renal
  TGI: 13.8 µM
MDA-MB-231 breast
  TGI: > 100 µM
KM12 colon
  TGI: 25.4 µM
PC-3 prostate
  TGI: 14.6 µM
SNB-19 CNS
  TGI: 16.6 µM
OVCAR-5 ovarian
  TGI: 7.25 µM
UACC-257 melanoma
  TGI: 5.11 µM
SF-268 CNS
  TGI: 17.8 µM
SR leukemia
  TGI: 2.29 µM
HS 578T breast
  TGI: > 100 µM
OVCAR-3 ovarian
  TGI: 15.6 µM
NCI-H460 lung
  TGI: 11.4 µM
SK-OV-3 ovarian
  TGI: 51.9 µM
HT29 colon
  TGI: 5.26 µM
HCT-15 colon
  TGI: 6.38 µM
NCI-H226 lung
  TGI: 59.8 µM
SK-MEL-2 melanoma
  TGI: 8.29 µM
NCI-H522 lung
  TGI: 4.89 µM
UACC-62 melanoma
  TGI: 5.73 µM
LOX IMVI melanoma
  TGI: 7.09 µM

## Nc1ccccc1C#C/C=C\C#Cc1ccccc1N
COLO 205 colon
  GI50: 31.3 µM
  TGI: > 100 µM
ACHN renal
  GI50: 19.9 µM
  TGI: 50.9 µM
M14 melanoma
  GI50: 5.04 µM
  TGI: 22.7 µM
NCI/ADR-RES ovarian
  GI50: 2.26 µM
  TGI: 7.95 µM
RXF 393 renal
  GI50: 16.8 µM
  TGI: 47.6 µM
SW-620 colon
  GI50: 2.91 µM
  TGI: 18.4 µM
BT-549 breast
  GI50: 11.5 µM
  TGI: 41.2 µM
HOP-92 NSCLC
  GI50: 1.2 µM
  TGI: 12.2 µM
SF-295 CNS
  GI50: 7.71 µM
  TGI: 25.4 µM
NCI-H23 lung
  GI50: 18.6 µM
  TGI: 62.9 µM
TK-10 renal
  GI50: 8.33 µM
  TGI: 36.1 µM
HCC-2998 colon
  GI50: 0.0333 µM
  TGI: 24.4 µM
SK-MEL-5 melanoma
  GI50: 1.95 µM
  TGI: 17.5 µM
MDA-MB-435
  GI50: 1.43 µM
  TGI: 4.58 µM
A549 NSCLC
  GI50: 41.5 µM
  TGI: > 100 µM
EKVX NSCLC
  GI50: 17 µM
  TGI: 69.5 µM
MCF7 breast
  GI50: 9.98 µM
  TGI: > 100 µM
OVCAR-8 ovarian
  GI50: 28.1 µM
  TGI: 74.7 µM
T-47D breast
  GI50: 26.9 µM
  TGI: > 100 µM
UO-31 renal
  GI50: 11.4 µM
  TGI: 34.1 µM
IGROV1 ovarian
  GI50: 34.6 µM
  TGI: > 100 µM
HCT-116 colon
  GI50: 4.15 µM
  TGI: 19.1 µM
U251 CNS
  GI50: 13.9 µM
  TGI: 32.2 µM
K-562 leukemia
  GI50: 0.583 µM
  TGI: 14.2 µM
CAKI-1 renal
  GI50: 6.86 µM
  TGI: 39 µM
HOP-62 NSCLC
  GI50: 12.1 µM
  TGI: 32.3 µM
CCRF-CEM leukemia
  GI50: 3.93 µM
  TGI: 32.4 µM
DU-145 prostate
  GI50: 26.8 µM
  TGI: > 100 µM
SN12C renal
  GI50: 21.8 µM
  TGI: 54.4 µM
MDA-MB-231 breast
  GI50: 12.5 µM
  TGI: 30.4 µM
SK-MEL-28 melanoma
  GI50: 28.7 µM
  TGI: 82 µM
KM12 colon
  GI50: 3.26 µM
  TGI: 27.6 µM
HL-60(TB) leukemia
  GI50: 4.18 µM
  TGI: 33.7 µM
PC-3 prostate
  GI50: 7.39 µM
  TGI: 29.1 µM
SNB-19 CNS
  GI50: 48.9 µM
  TGI: > 100 µM
OVCAR-5 ovarian
  GI50: 10.9 µM
  TGI: 40.7 µM
UACC-257 melanoma
  GI50: 41.3 µM
  TGI: > 100 µM
SF-268 CNS
  GI50: 10.7 µM
  TGI: 37.9 µM
OVCAR-3 ovarian
  GI50: 1.72 µM
  TGI: 9.1 µM
MOLT-4 leukemia
  GI50: 1.04 µM
  TGI: 17.3 µM
OVCAR-4 ovarian
  GI50: 34.2 µM
  TGI: > 100 µM
NCI-H460 lung
  GI50: 6.51 µM
  TGI: 80.4 µM
SK-OV-3 ovarian
  GI50: 23.2 µM
  TGI: 54.9 µM
HT29 colon
  GI50: 32 µM
  TGI: > 100 µM
HCT-15 colon
  GI50: 14.1 µM
  TGI: 33.3 µM
A498 renal
  GI50: 13.6 µM
  TGI: 36 µM
SF-539 CNS
  GI50: 10.1 µM
  TGI: 26.6 µM
NCI-H226 lung
  GI50: 19.6 µM
  TGI: 53.8 µM
MALME-3M melanoma
  GI50: 7.86 µM
  TGI: 32.9 µM
786-0 renal
  GI50: 13.7 µM
  TGI: 42.9 µM
SNB-75 CNS
  GI50: 29.4 µM
  TGI: > 100 µM
SK-MEL-2 melanoma
  GI50: 16.3 µM
  TGI: 60.7 µM
NCI-H522 lung
  GI50: 16.3 µM
  TGI: 44.5 µM
UACC-62 melanoma
  GI50: 11.4 µM
  TGI: 27.5 µM
LOX IMVI melanoma
  GI50: 17.9 µM
  TGI: 33.7 µM

## CCOC(=O)CNC(=O)C(Cc1ccccc1)NC(=O)C(N)CC(=O)O (stereo not drawn) (H-Asp-Phe-Gly-OEt; configuration not given here)
CCRF-CEM leukemia
  GI50: 85.2 µg/mL
KM12 colon
  GI50: 0.194 µg/mL
HS 578T breast
  GI50: 9.31 µg/mL (≈ 25.5 µM)
MOLT-4 leukemia
  GI50: 23.7 µg/mL
UACC-62 melanoma
  GI50: 30.3 µg/mL

## NNC(=O)c1c(SCc2ccccc2)nc2c3ccccc3ccn12
COLO 205 colon
  TGI: > 100 µM
ACHN renal
  TGI: > 100 µM
M14 melanoma
  TGI: 41.2 µM
NCI/ADR-RES ovarian
  TGI: > 100 µM
RXF 393 renal
  TGI: 93.4 µM
SW-620 colon
  TGI: > 100 µM
BT-549 breast
  TGI: 70.2 µM
HOP-92 NSCLC
  TGI: 68.5 µM
SF-295 CNS
  TGI: > 100 µM
NCI-H23 lung
  TGI: 52.6 µM
TK-10 renal
  TGI: > 100 µM
HCC-2998 colon
  TGI: > 100 µM
SK-MEL-5 melanoma
  TGI: 28.3 µM
MDA-MB-435
  TGI: > 100 µM
A549 NSCLC
  TGI: 70.3 µM
EKVX NSCLC
  TGI: > 100 µM
MCF7 breast
  TGI: > 100 µM
OVCAR-8 ovarian
  TGI: > 100 µM
T-47D breast
  TGI: 72.1 µM
UO-31 renal
  TGI: 66.5 µM
IGROV1 ovarian
  TGI: 51.2 µM
U251 CNS
  TGI: > 100 µM
K-562 leukemia
  TGI: 57.9 µM
CAKI-1 renal
  TGI: 87.9 µM
HOP-62 NSCLC
  TGI: > 100 µM
CCRF-CEM leukemia
  TGI: 22.1 µM
DU-145 prostate
  TGI: > 100 µM
SN12C renal
  TGI: > 100 µM
MDA-MB-231 breast
  TGI: 87.9 µM
SK-MEL-28 melanoma
  TGI: > 100 µM
KM12 colon
  TGI: > 100 µM
HL-60(TB) leukemia
  TGI: 29.4 µM
PC-3 prostate
  TGI: > 100 µM
SNB-19 CNS
  TGI: > 100 µM
OVCAR-5 ovarian
  TGI: 54.8 µM
UACC-257 melanoma
  TGI: > 100 µM
SF-268 CNS
  TGI: > 100 µM
HS 578T breast
  TGI: > 100 µM
OVCAR-3 ovarian
  TGI: 16 µM
MOLT-4 leukemia
  TGI: 41.3 µM
OVCAR-4 ovarian
  TGI: 68.6 µM
NCI-H460 lung
  TGI: 28 µM
SK-OV-3 ovarian
  TGI: > 100 µM
HT29 colon
  TGI: 35.3 µM
HCT-15 colon
  TGI: 41.2 µM
A498 renal
  TGI: 46.6 µM
SF-539 CNS
  TGI: > 100 µM
NCI-H226 lung
  TGI: > 100 µM
SK-MEL-2 melanoma
  TGI: > 100 µM
NCI-H522 lung
  TGI: 37.3 µM
UACC-62 melanoma
  TGI: 29.6 µM
